Experimental findings from ChEMBL document CHEMBL1201862, “PubChem BioAssay data set” (2004) are described below.

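Exposure lasted 48 hours, with cells grown in 96-well plates and compounds tested at five concentrations. GI50 marks 50% less growth.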 Calls of active or inactive are those of the source. Cut-off read from the data, not from the text of the source: active = GI50 up to about 1.1 µM and inactive = higher.

Test systems include OVCAR-8; COLO 205; IGROV-1; A498; NCI-H460; Malme-3M; A549; CCRF-CEM; TK-10; SF-295; OVCAR-3; SW-620; HCT-15; SK-MEL-5; HCC 2998; HL-60; U-251; SK-OV-3; NCI-H522.
Holding throughout (experiment): NCI anticancer screen, dose series, 48 h

Turning to `CSc1nc(NC2OCC(OC(C)=O)C(OC(C)=O)C2OC(C)=O)c(/N=C(\C)C(C)=O)c(=O)n1C` (configuration not stated), the GI50 in the assay on OVCAR-8, in the assay on COLO 205, in the assay on IGROV-1, with A498, in the assay on NCI-H460 and in the assay with Malme-3M was > 100 µM (inactive) throughout. The GI50 in the assay with A549, with CCRF-CEM, with TK-10, in the assay on SF-295, in the assay on OVCAR-3 and with SW-620 was > 100 µM (inactive) in each case. Moreover, the GI50 in the assay on HCT-15 is more than 100 µM; with SK-MEL-5, > 100 µM (inactive); with HCC 2998 it was > 100 µM (inactive); with HL-60, > 100 µM (inactive); in the assay with U-251, > 100 µM (inactive); with SK-OV-3, > 100 µM (inactive).
As for `O=C1OC(c2ccccc2)=N/C1=C\c1cc(Cl)ccc1Cl`, the GI50 in the assay on OVCAR-8 is > 10 µM (inactive); in the assay with COLO 205, > 100 µM (inactive); in the assay on IGROV-1, > 100 µM (inactive); in the assay with A498 it was > 100 µM (inactive); in the assay on NCI-H460 it was > 100 µM (inactive); in the assay on NCI-H522 it was > 100 µM (inactive). The GI50 with Malme-3M is > 100 µM (inactive); in the assay on A549 it was > 100 µM (inactive); in the assay with CCRF-CEM it was 23.9 µM (inactive); in the assay on SF-295 it was > 100 µM (inactive); with SW-620 it was 34.9 µM (inactive); with HCT-15, 16.4 µM. The GI50 in the assay with SK-MEL-5 is > 100 µM (inactive); with HCC 2998, > 100 µM (inactive); with HL-60, 6.64 µM (inactive); in the assay on U-251 it was 70.8 µM (inactive).
For the molecule `CN(C)CC1CCCCCCCCCCCCC(CN(C)C)C1=O` (configuration not stated), the GI50 in the assay with OVCAR-8 is 10.3 µM (inactive); with COLO 205, 14 µM (inactive); with IGROV-1 it was 17.3 µM (inactive); with A498 it was 18.7 µM (inactive); in the assay on NCI-H460, 13.7 µM (inactive); in the assay on Malme-3M it was 15.7 µM (inactive). Besides, the GI50 in the assay on A549 is 15.5 µM (inactive); in the assay on TK-10, 14.7 µM (inactive); in the assay on SF-295, 15.8 µM (inactive); in the assay on OVCAR-3, 16.8 µM (inactive); in the assay on SW-620 it was 7.64 µM (inactive); with HCT-15, 18.7 µM. The GI50 in the assay with SK-MEL-5 was 14.5 µM (inactive); with HCC 2998, 10.2 µM (inactive); in the assay on U-251, 14.3 µM (inactive); with SK-OV-3 it was 17.7 µM (inactive).
Regarding `COc1ccc(C2N3CCCCC3[C@@H]3c4[nH]c5ccccc5c4CCN23)c(OC)c1` (some centres not stated), the GI50 in the assay with OVCAR-8 was 33.3 µM (inactive); with COLO 205, 18.2 µM (inactive); in the assay with IGROV-1 it was 45.1 µM (inactive); with A498, 15.5 µM (inactive); in the assay with NCI-H460 it was 22 µM (inactive); in the assay with A549, 40.8 µM (inactive). In addition, the GI50 in the assay with CCRF-CEM is 26.9 µM (inactive); with TK-10 it was 25.2 µM (inactive); in the assay with SF-295, 42.3 µM (inactive); with OVCAR-3, 24.6 µM (inactive); in the assay on SW-620, 33.7 µM (inactive); in the assay with HCT-15 it was 28 µM. Moreover, the GI50 is 16.3 µM (inactive) in the assay with SK-MEL-5, 18.2 µM (inactive) in the assay on HL-60, 28.4 µM (inactive) in the assay on U-251 and 30.4 µM (inactive) in the assay with SK-OV-3.
Consider `COC(=O)C12CC3CC(C1)CC(C(=O)OC)(C3)C2`, for which the GI50 in the assay on OVCAR-8, with IGROV-1, in the assay with A498, in the assay on NCI-H460, in the assay with NCI-H522 and with A549 was > 100 µM (inactive) throughout. Further, the GI50 in the assay with CCRF-CEM is > 100 µM (inactive); in the assay with TK-10, > 100 µM (inactive); in the assay on SF-295 it was > 100 µM (inactive); in the assay on OVCAR-3, > 100 µM (inactive); in the assay on SW-620, > 100 µM (inactive); in the assay with HCT-15, more than 100 µM. The GI50 was > 100 µM (inactive) with SK-MEL-5; > 100 µM (inactive) with HCC 2998; 55.8 µM (inactive) in the assay on HL-60; > 100 µM (inactive) in the assay on U-251; > 100 µM (inactive) in the assay on SK-OV-3.
Regarding `COc1cc2ccc3c4cc(OC)c(OC(C)C)cc4c[n+](C)c3c2cc1OC`, the GI50 in the assay on OVCAR-8 was 39.2 µM (inactive); in the assay on COLO 205, 14.5 µM (inactive); in the assay on IGROV-1, 74.5 µM (inactive); with NCI-H460, > 100 µM (inactive); with NCI-H522, 17.4 µM (inactive); in the assay on Malme-3M, 48.9 µM (inactive). For the same molecule, the GI50 in the assay on A549 was > 100 µM (inactive); in the assay with CCRF-CEM it was 49.1 µM (inactive); with TK-10, > 100 µM (inactive); in the assay with SF-295 it was > 100 µM (inactive); with OVCAR-3, 19.7 µM (inactive); with SW-620, 71.6 µM (inactive). The GI50 with HCT-15 was more than 100 µM; in the assay on SK-MEL-5, 42 µM (inactive); in the assay with HCC 2998, 44.5 µM (inactive); with HL-60 it was 35.1 µM (inactive); in the assay with U-251 it was 31.3 µM (inactive); with SK-OV-3 it was > 100 µM (inactive).
Regarding `O=C(CC1SC(Nc2ccccc2Cl)=NC1=O)Nc1ccc(Cl)cc1Cl` (configuration not stated), the GI50 in the assay on OVCAR-8, in the assay on COLO 205, with IGROV-1, in the assay on NCI-H460, in the assay on Malme-3M and with A549 was > 100 µM (inactive) in each case. Also, the GI50 in the assay with CCRF-CEM, with TK-10, in the assay on SF-295, with OVCAR-3, in the assay on SW-620 and in the assay with SK-MEL-5 was > 100 µM (inactive) in each case. For the same molecule, the GI50 in the assay on HCC 2998, in the assay with HL-60 and with U-251 was > 100 µM (inactive) throughout.
Regarding `CN1N=C(Nc2ccccc2)Sc2c1cnn(-c1ccccc1)c2=O`, the GI50 in the assay on OVCAR-8, in the assay with COLO 205, in the assay on IGROV-1, in the assay with A498, with NCI-H460 and in the assay with Malme-3M was > 100 µM (inactive) in each case. Further, the GI50 in the assay with A549 was > 100 µM (inactive); in the assay on CCRF-CEM, > 100 µM (inactive); in the assay on TK-10, > 100 µM (inactive); with SF-295, 73.3 µM (inactive); with OVCAR-3, 28.1 µM (inactive); with SW-620 it was > 100 µM (inactive). Further, the GI50 in the assay on HCT-15 was more than 100 µM; in the assay with HCC 2998, > 100 µM (inactive); with HL-60 it was 85.7 µM (inactive); with U-251 it was > 100 µM (inactive); in the assay with SK-OV-3 it was > 100 µM (inactive).
For `CCOC(=O)Cc1nc2ccc3c(c2nc1O)C(=O)c1ccccc1C3=O`, the GI50 in the assay on OVCAR-8 was 31.6 µM (inactive); in the assay on COLO 205, > 100 µM (inactive); with IGROV-1, 16.9 µM (inactive); with A498, 28.4 µM (inactive); in the assay on NCI-H460 it was 35.4 µM (inactive); with NCI-H522 it was 16.8 µM (inactive). Further, the GI50 in the assay on Malme-3M was 60.7 µM (inactive); in the assay with A549 it was 34.4 µM (inactive); in the assay with CCRF-CEM, 1.95 µM (inactive); in the assay with TK-10, 31.7 µM (inactive); in the assay with OVCAR-3, 58.3 µM (inactive); in the assay with SW-620, 56 µM (inactive). Besides, the GI50 is 25.2 µM in the assay with HCT-15; 26.1 µM (inactive) in the assay on SK-MEL-5; 46.7 µM (inactive) with HCC 2998; 48.4 µM (inactive) in the assay with U-251; 22.8 µM (inactive) in the assay on SK-OV-3.
For `Cc1ccccc1C(=O)Oc1ccc(Oc2ccccc2)cc1`, the GI50 with OVCAR-8 is > 100 µM (inactive); with COLO 205, > 100 µM (inactive); with IGROV-1 it was > 100 µM (inactive); with A498 it was 77.6 µM (inactive); in the assay on NCI-H460, 39.2 µM (inactive); in the assay with Malme-3M it was > 100 µM (inactive). Also, the GI50 in the assay on A549 is > 100 µM (inactive); in the assay on CCRF-CEM, 42.7 µM (inactive); in the assay on TK-10, 78.2 µM (inactive); with SF-295 it was > 100 µM (inactive); in the assay on OVCAR-3 it was > 100 µM (inactive); in the assay on SW-620 it was 73.6 µM (inactive). In addition, the GI50 is more than 100 µM with HCT-15; > 100 µM (inactive) in the assay with SK-MEL-5; 86.1 µM (inactive) with HCC 2998; 18.2 µM (inactive) with HL-60; > 100 µM (inactive) with U-251; > 100 µM (inactive) in the assay with SK-OV-3.
As to `Cc1ccc2c(c1)C(C(=O)N[C@@H]1C(=O)N3[C@@H]1SC(C)(C)[C@@H]3C(=O)O)OCCC2` (some centres not stated), the GI50 with OVCAR-8, in the assay with COLO 205, with IGROV-1, with A498, in the assay on NCI-H460 and with NCI-H522 was > 100 µM (inactive) in each case. Further, the GI50 was > 100 µM (inactive) in the assay with A549; > 100 µM (inactive) with CCRF-CEM; > 100 µM (inactive) in the assay with TK-10; > 100 µM (inactive) in the assay with SF-295; 87.1 µM (inactive) with OVCAR-3; > 100 µM (inactive) with SW-620. Moreover, the GI50 is more than 100 µM in the assay with HCT-15; > 100 µM (inactive) in the assay on SK-MEL-5; > 100 µM (inactive) in the assay on HCC 2998; > 100 µM (inactive) in the assay on HL-60; > 100 µM (inactive) with U-251; > 100 µM (inactive) in the assay on SK-OV-3.
Turning to `CCCCCCCCCCCCCCCCCc1nnc(N)o1`, the GI50 with OVCAR-8, in the assay with COLO 205, in the assay on IGROV-1, in the assay on NCI-H460, in the assay on NCI-H522 and with Malme-3M was > 100 µM (inactive) each time. In addition, the GI50 in the assay on A549 was > 100 µM (inactive); in the assay on TK-10 it was > 100 µM (inactive); in the assay with SF-295, > 100 µM (inactive); in the assay on OVCAR-3, > 100 µM (inactive); in the assay on SW-620 it was > 100 µM (inactive); with HCT-15 it was more than 100 µM. For the same molecule, the GI50 in the assay on HCC 2998, with HL-60, in the assay with U-251 and with SK-OV-3 was > 100 µM (inactive) in each case.
